Laboratory results taken from ChEMBL document CHEMBL4184209, “Identification and initial optimization of inhibitors of Clostridium difficile (C. difficile) toxin B (TcdB)” (Bioorg Med Chem Lett, 2018).
Calls of active or inactive are those of the source.

Key:
Clostridioides difficile = test: Effect on growth of Clostridium difficile at 0.5 to 100 uM incubated for 24 hrs under anaerobic conditions by spectrophotometry; type: functional, organism-based
[1] = tested on: Limosilactobacillus reuteri; test: Effect on growth of Lactobacillus reuteri at 0.5 to 100 uM incubated for 24 hrs under anaerobic conditions by spectrophotometry; type: organism-based
Bacteroides fragilis = test: Effect on growth of Bacteroides fragilis at 0.5 to 100 uM incubated for 48 hrs under anaerobic conditions by spectrophotometry; type: organism-based
Bifidobacterium longum = test: Effect on growth of Bifidobacterium longum at 0.5 to 100 uM incubated for 24 hrs under anaerobic conditions by spectrophotometry; type: organism-based
[2] = Stability in human liver microsomes assessed as parent compound remaining level incubated for 15 mins; type: ADME, microsome; details: read-out: Stability
Toxin B [3] = target: T1, Toxin B (Clostridioides difficile, UniProt P18177); test: Inhibition of Clostridium difficile toxin B […] assessed as reduction in caspase 3/7 activation pre-incubated for 1 hr before TcdB addition by luminescence based assay1; type: cell-based
T1 sequence (P18177 whole entry, the tested form may be a part): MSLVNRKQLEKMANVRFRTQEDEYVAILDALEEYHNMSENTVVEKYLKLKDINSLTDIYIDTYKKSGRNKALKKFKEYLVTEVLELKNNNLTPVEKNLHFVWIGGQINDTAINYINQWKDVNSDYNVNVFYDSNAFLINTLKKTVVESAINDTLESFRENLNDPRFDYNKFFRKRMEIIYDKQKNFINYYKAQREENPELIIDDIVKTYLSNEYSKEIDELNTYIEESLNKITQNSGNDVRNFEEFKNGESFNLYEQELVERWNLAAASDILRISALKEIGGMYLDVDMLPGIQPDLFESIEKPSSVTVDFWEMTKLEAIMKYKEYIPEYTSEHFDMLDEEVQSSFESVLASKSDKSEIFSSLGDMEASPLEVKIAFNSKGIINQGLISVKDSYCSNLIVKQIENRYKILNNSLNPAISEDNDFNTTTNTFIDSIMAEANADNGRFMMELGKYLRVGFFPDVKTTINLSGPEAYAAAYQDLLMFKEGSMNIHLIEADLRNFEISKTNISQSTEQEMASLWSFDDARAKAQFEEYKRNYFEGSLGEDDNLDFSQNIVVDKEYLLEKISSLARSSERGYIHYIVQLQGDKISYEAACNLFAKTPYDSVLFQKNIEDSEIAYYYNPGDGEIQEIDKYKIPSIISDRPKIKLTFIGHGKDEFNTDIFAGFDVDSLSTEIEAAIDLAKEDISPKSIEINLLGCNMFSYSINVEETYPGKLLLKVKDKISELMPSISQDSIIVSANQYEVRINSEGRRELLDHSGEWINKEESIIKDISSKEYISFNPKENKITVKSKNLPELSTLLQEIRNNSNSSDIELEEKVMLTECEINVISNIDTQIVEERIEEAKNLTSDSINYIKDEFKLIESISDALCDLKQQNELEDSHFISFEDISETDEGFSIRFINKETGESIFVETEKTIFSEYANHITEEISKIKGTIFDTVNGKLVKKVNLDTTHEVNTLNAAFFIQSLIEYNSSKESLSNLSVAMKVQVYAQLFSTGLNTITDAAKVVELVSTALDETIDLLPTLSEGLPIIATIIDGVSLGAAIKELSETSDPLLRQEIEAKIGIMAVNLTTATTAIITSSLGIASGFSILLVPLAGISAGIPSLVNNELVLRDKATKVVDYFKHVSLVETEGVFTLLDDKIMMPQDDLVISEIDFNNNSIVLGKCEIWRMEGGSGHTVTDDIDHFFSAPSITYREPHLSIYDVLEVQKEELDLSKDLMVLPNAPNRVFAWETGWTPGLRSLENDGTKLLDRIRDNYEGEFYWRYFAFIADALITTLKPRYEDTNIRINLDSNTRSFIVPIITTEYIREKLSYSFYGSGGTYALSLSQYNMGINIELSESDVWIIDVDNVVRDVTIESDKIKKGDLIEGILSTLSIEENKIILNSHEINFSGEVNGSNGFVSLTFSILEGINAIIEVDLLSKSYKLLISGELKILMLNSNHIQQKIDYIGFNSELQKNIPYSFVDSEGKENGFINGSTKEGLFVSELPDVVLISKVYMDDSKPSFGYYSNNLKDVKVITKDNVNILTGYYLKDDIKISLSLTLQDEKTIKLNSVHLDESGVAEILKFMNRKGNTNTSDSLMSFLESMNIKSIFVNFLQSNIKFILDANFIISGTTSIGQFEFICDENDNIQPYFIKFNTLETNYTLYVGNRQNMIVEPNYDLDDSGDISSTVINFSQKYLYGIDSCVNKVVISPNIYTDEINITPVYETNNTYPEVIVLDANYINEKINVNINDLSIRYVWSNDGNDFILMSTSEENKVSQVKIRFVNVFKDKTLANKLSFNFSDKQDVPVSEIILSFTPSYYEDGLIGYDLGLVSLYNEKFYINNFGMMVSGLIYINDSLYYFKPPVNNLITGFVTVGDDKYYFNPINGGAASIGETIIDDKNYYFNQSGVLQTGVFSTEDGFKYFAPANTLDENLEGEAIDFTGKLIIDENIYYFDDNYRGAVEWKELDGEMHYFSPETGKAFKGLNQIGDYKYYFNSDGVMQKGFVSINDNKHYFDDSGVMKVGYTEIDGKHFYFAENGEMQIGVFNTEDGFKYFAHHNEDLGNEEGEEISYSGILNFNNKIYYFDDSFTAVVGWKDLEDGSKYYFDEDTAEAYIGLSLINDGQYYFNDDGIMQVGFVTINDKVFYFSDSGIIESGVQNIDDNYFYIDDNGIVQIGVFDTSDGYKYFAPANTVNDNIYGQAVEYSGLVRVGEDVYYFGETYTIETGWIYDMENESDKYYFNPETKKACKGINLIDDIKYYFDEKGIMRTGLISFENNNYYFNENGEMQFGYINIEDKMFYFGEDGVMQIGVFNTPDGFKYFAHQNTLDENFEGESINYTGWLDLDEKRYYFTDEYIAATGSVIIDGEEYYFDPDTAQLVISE

Toxin B [4] = target: T1, Toxin B; test: Inhibition of C-terminal 6-His tagged recombinant Clostridium difficile toxin B catalytic fragment (Met1 to Leu543 residues) assessed as reduction in glucosyltransferase domain UDP-glucose hydrolysis activity using UDP-glucose and ADP Alexa633 tracer incubated fore 3 hrs by fluorescence polarization assay
[5] = Stability in mouse liver microsomes assessed as parent compound remaining level incubated for 15 mins; type: ADME, microsome; details: read-out: Stability
[6] = Elimination half life in CD1 mouse at 1 mg/kg, iv; type: ADME, organism-based; details: in vivo, read-out: beta t1/2 (converted)
[7] = Clearance in CD1 mouse at 1 mg/kg, iv; type: ADME, organism-based; details: in vivo
[8] = AUC (0 to 24 hrs) in CD1 mouse at 10 mg/kg, po; type: ADME, organism-based; parameters: dose 10 mg/kg, time < 24 hr, route oral; details: in vivo
[9] = Tmax in CD1 mouse at 10 mg/kg, po; type: ADME, organism-based; details: in vivo
[10] = Cmax in CD1 mouse at 1 mg/kg, iv; type: ADME, organism-based; parameters: dose 1 mg/kg, route intravenous; details: in vivo
[11] = Stability in mouse plasma assessed as parent compound remaining measured during 0 to 120 mins post dose; type: ADME, cell-free
Toxin A = Toxin A (Clostridioides difficile, UniProt P16154); test: Inhibition of Clostridium difficile toxin A […] assessed as reduction in caspase 3/7 activation pre-incubated for 1 hr before TcdA addition by luminescence based assay1; type: cell-based
Toxin A, sequence (P16154 whole entry): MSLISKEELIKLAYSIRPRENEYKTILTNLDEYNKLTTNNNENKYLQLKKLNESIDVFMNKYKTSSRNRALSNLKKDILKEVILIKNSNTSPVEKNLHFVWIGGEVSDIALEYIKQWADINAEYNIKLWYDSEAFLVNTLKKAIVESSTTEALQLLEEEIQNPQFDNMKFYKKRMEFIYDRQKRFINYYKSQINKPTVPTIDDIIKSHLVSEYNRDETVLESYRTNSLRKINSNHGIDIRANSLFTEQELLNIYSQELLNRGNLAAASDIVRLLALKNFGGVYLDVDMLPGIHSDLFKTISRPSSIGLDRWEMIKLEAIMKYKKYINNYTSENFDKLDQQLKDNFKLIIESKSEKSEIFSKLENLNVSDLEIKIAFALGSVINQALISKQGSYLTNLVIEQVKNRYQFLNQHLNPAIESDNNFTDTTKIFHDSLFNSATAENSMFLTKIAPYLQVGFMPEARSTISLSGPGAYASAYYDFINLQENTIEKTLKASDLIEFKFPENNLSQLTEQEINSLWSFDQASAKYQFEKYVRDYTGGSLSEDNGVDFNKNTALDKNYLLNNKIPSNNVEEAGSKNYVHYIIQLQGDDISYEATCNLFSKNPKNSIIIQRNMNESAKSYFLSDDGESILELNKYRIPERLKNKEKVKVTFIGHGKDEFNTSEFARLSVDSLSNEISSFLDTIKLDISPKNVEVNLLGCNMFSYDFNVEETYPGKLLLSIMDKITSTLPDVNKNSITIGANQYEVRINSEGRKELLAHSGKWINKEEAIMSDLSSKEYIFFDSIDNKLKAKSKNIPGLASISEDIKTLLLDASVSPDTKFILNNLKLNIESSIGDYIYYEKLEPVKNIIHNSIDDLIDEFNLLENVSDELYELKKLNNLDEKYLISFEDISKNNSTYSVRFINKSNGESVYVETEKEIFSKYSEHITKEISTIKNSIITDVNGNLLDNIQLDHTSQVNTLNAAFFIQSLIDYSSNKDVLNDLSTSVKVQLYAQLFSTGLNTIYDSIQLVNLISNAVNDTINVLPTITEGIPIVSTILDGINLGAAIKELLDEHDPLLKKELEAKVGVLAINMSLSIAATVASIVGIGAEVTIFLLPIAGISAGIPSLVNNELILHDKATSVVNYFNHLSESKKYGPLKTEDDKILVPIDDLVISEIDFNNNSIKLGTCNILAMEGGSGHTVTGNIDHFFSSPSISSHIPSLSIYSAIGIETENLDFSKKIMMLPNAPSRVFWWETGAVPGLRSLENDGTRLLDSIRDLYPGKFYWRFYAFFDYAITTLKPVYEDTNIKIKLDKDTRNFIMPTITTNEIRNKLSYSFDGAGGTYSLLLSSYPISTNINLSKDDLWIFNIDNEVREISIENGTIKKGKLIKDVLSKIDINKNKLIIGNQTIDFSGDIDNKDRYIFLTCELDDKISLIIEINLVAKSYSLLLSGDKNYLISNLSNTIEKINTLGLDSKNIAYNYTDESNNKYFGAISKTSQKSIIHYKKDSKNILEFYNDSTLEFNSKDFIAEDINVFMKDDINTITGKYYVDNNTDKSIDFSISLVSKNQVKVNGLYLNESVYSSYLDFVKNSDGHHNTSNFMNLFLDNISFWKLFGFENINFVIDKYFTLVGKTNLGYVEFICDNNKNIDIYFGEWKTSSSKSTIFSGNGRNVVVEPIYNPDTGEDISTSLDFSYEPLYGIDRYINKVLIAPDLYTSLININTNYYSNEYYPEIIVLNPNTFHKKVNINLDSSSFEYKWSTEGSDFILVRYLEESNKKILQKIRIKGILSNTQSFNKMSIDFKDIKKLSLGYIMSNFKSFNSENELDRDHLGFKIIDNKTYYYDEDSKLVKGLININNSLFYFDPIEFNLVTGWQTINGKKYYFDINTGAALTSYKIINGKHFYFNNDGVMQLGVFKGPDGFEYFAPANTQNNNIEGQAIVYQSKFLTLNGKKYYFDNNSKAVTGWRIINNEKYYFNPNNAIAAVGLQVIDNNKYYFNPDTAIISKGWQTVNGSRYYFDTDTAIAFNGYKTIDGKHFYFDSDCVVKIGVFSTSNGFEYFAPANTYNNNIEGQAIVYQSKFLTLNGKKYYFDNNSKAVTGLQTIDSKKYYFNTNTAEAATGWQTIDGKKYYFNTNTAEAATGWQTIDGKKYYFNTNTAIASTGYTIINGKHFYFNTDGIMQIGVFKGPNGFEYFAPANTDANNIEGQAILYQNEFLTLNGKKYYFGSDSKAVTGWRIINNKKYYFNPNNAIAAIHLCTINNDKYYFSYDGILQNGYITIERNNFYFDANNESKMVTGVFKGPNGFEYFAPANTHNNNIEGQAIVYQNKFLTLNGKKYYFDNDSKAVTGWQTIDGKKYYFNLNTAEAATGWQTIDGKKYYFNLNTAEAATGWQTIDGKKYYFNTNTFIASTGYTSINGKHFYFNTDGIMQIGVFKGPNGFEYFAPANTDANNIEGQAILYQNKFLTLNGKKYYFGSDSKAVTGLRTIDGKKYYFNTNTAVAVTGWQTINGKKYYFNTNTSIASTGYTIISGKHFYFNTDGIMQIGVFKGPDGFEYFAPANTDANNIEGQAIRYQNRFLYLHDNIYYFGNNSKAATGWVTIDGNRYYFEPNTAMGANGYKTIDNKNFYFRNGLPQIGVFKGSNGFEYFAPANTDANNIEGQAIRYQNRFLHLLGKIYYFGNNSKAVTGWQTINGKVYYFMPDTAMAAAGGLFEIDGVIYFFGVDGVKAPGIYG

[12] = AUC (0 to 24 hrs) in CD1 mouse at 1 mg/kg, iv; type: ADME, organism-based; parameters: dose 1 mg/kg, time < 24 hr, route intravenous; details: in vivo
[13] = Cmax in CD1 mouse at 10 mg/kg, po; type: ADME, organism-based; parameters: dose 10 mg/kg, route oral; details: in vivo
[14] = Apparent volume of distribution in CD1 mouse at 1 mg/kg, iv; type: ADME, organism-based; details: in vivo, read-out: Vz
[15] = Stability in mouse plasma assessed as parent compound remaining measured after 2 hrs post dose; type: ADME, cell-free
[16] = Stability in mouse plasma assessed as parent compound remaining measured after 15 mins post dose; type: ADME, cell-free; details: read-out: Stability

Row | Compound | Activity (Clostridioides difficile) | Activity [1] | Activity (Bacteroides fragilis) | Activity (Bifidobacterium longum) | remaining at 0.25 h [2] [%] | IC50 (Toxin B [3]) [nM] | IC50 (Toxin B [4]) [nM] | remaining at 0.25 h [5] [%] | half-life [6] [min] | clearance [7] [mL/min/kg] | AUC(0-t) at 24 h [8] [ng·h/mL] | Tmax [9] [min] | Cmax [10] [ng/mL] | Stability [11] | IC50 (Toxin A) [nM] | AUC(0-t) at 24 h [12] [ng·h/mL] | Cmax [13] [ng/mL] | Vd [14] [L/kg] | Stability [15] | remaining at 0.25 h [16] [%]
1 | O=C(Nc1ccccn1)c1ccc(CN2C(=O)c3ccc(Cl)cc3NC(=O)[C@H]2Cc2ccccn2)cc1 | inactive | Non-Toxic | Non-Toxic | Non-Toxic | 99 | 230 | 3 | 53 |  |  |  |  |  |  |  |  |  |  |  | 
2 | Cc1ccc(NC(=O)c2ccc(CN3C(=O)c4ccc(Cl)cc4NC(=O)[C@H]3Cc3ccccn3)cc2)nc1 | inactive | Non-Toxic | Non-Toxic | Non-Toxic | 63 | 170 | 1 | 43 | 60 | 76 | 1070 | 15 | 1030 | Unstable | 3200 | 200 | 2690 | 6.9 |  | 
3 | COc1cnc(NC(=O)c2ccc(CN3C(=O)c4ccc(Cl)cc4NC(=O)[C@H]3Cc3ccccn3)cc2)nc1 | inactive | Non-Toxic | Non-Toxic | Non-Toxic | 90 | 520 | 7 | 77 |  |  | 181 | 30 | 2 |  | 2600 | 2 | 27 |  | Unstable | 50
4 | O=C(Nc1cnccn1)c1ccc(CN2C(=O)c3ccc(Cl)cc3NC(=O)[C@H]2Cc2cccnc2)cc1 | inactive | Non-Toxic | Non-Toxic | Non-Toxic | 92 | 13000 | 78 | 98 |  |  |  |  |  |  |  |  |  |  |  | 
5 | O=C(Nc1ccccn1)c1ccc(CN2C(=O)c3ccc(Cl)cc3NC(=O)[C@H]2Cc2cccnc2)cc1 | inactive | Non-Toxic | Non-Toxic | Non-Toxic | 97 | 4500 | 9 | 57 |  |  |  |  |  |  |  |  |  |  |  | 
6 | COc1ccc(NC(=O)c2ccc(CN3C(=O)c4ccc(Cl)cc4NC(=O)[C@H]3Cc3ccccn3)cc2)nc1 | inactive | Non-Toxic | Non-Toxic | Non-Toxic | 81 | 43 | 3 | 61 |  |  |  |  |  |  | 1100 |  |  |  |  | 
7 | O=C(Nc1nccs1)c1ccc(CN2C(=O)c3ccc(Cl)cc3NC(=O)[C@H]2Cc2cccnc2)cc1 | inactive | Non-Toxic | Non-Toxic | Non-Toxic | 61 | 20000 | 42 | 67 |  |  |  |  |  |  |  |  |  |  |  | 
